Experimental data published in PubChem BioAssay AID1259407 (Chemical Carcinogenesis Research Information System (CCRIS), 2018).
Active and inactive are the calls of the source. The rule behind the calls is not given here.

System: CCRIS mutagenicity, Ames/micronucleus/aberration tests
Experiment: CCRIS mutagenicity studies
[1] = Test System: AMES SALMONELLA TYPHIMURIUM, Strain/Indicator: TA98, Metabolic Activation: HAMSTER, LIVER, S-9, AROCLOR 1254 (10%), Method: PREINCUBATION
[2] = Test System: AMES SALMONELLA TYPHIMURIUM, Strain/Indicator: TA98, Metabolic Activation: NONE, Method: PREINCUBATION
[3] = Test System: AMES SALMONELLA TYPHIMURIUM, Strain/Indicator: TA98, Metabolic Activation: RAT, LIVER, S-9, AROCLOR 1254 (10%), Method: PREINCUBATION
[4] = Test System: AMES SALMONELLA TYPHIMURIUM, Strain/Indicator: TA100, Metabolic Activation: HAMSTER, LIVER, S-9, AROCLOR 1254 (10%), Method: PREINCUBATION
[5] = Test System: AMES SALMONELLA TYPHIMURIUM, Strain/Indicator: TA100, Metabolic Activation: NONE, Method: PREINCUBATION
[6] = Test System: AMES SALMONELLA TYPHIMURIUM, Strain/Indicator: TA100, Metabolic Activation: NONE, Method: STANDARD PLATE
[7] = Test System: AMES SALMONELLA TYPHIMURIUM, Strain/Indicator: TA100, Metabolic Activation: RAT, LIVER, S-9, AROCLOR 1254 (10%), Method: PREINCUBATION
[8] = Test System: AMES SALMONELLA TYPHIMURIUM, Strain/Indicator: TA1535, Metabolic Activation: HAMSTER, LIVER, S-9, AROCLOR 1254 (10%), Method: PREINCUBATION
[9] = Test System: AMES SALMONELLA TYPHIMURIUM, Strain/Indicator: TA1535, Metabolic Activation: NONE, Method: PREINCUBATION
[10] = Test System: AMES SALMONELLA TYPHIMURIUM, Strain/Indicator: TA1535, Metabolic Activation: RAT, LIVER, S-9, AROCLOR 1254 (10%), Method: PREINCUBATION
[11] = Test System: AMES SALMONELLA TYPHIMURIUM, Strain/Indicator: TA1537, Metabolic Activation: HAMSTER, LIVER, S-9, AROCLOR 1254 (10%), Method: PREINCUBATION
[12] = Test System: AMES SALMONELLA TYPHIMURIUM, Strain/Indicator: TA1537, Metabolic Activation: NONE, Method: PREINCUBATION
[13] = Test System: AMES SALMONELLA TYPHIMURIUM, Strain/Indicator: TA1537, Metabolic Activation: RAT, LIVER, S-9, AROCLOR 1254 (10%), Method: PREINCUBATION

With `CCn1c2ccccc2c2cc(C=O)ccc21` the mutagenic call (End Point: IN VITRO CHROMOSOMAL ABERRATIONS, Test System: CHL CELLS, Metabolic Activation: RAT, LIVER, S-9, SODIUM PHENOBARBITAL AND 5,6-BENZOFLAVONE) was “active; positive (structural changes)”.
`CCCCCCCCCCCCS` was tested, and the mutagenic call [1] was “inactive; negative”, the mutagenic call (Test System: AMES SALMONELLA TYPHIMURIUM, Strain/Indicator: TA98, Metabolic Activation: HAMSTER, LIVER, S-9, AROCLOR 1254, Method: STANDARD PLATE) was “inactive; negative” and the mutagenic call [2] was “inactive; negative”. For the same molecule, the mutagenic call (Test System: AMES SALMONELLA TYPHIMURIUM, Strain/Indicator: TA98, Metabolic Activation: NONE, Method: STANDARD PLATE) was “inactive; negative”, the mutagenic call [3] was “inactive; negative” and the mutagenic call (Test System: AMES SALMONELLA TYPHIMURIUM, Strain/Indicator: TA98, Metabolic Activation: RAT, LIVER, S-9, AROCLOR 1254, Method: STANDARD PLATE) was “inactive; negative”. The mutagenic call [4] was “inactive; negative”, the mutagenic call (Test System: AMES SALMONELLA TYPHIMURIUM, Strain/Indicator: TA100, Metabolic Activation: HAMSTER, LIVER, S-9, AROCLOR 1254, Method: STANDARD PLATE) was “inactive; negative” and the mutagenic call [5] was “inactive; negative”. The mutagenic call [6] was “inactive; negative”, the mutagenic call [7] was “inactive; negative” and the mutagenic call (Test System: AMES SALMONELLA TYPHIMURIUM, Strain/Indicator: TA100, Metabolic Activation: RAT, LIVER, S-9, AROCLOR 1254, Method: STANDARD PLATE) was “inactive; negative”. For the same molecule, the mutagenic call [8] was “inactive; negative”, the mutagenic call (Test System: AMES SALMONELLA TYPHIMURIUM, Strain/Indicator: TA1535, Metabolic Activation: HAMSTER, LIVER, S-9, AROCLOR 1254, Method: STANDARD PLATE) was “inactive; negative” and the mutagenic call [9] was “inactive; negative”. For the same molecule, the mutagenic call (Test System: AMES SALMONELLA TYPHIMURIUM, Strain/Indicator: TA1535, Metabolic Activation: NONE, Method: STANDARD PLATE) was “inactive; negative”, the mutagenic call [10] was “inactive; negative” and the mutagenic call (Test System: AMES SALMONELLA TYPHIMURIUM, Strain/Indicator: TA1535, Metabolic Activation: RAT, LIVER, S-9, AROCLOR 1254, Method: STANDARD PLATE) was “inactive; negative”. The mutagenic call [11] was “inactive; negative”, the mutagenic call (Test System: AMES SALMONELLA TYPHIMURIUM, Strain/Indicator: TA1537, Metabolic Activation: HAMSTER, LIVER, S-9, AROCLOR 1254, Method: STANDARD PLATE) was “inactive; negative” and the mutagenic call [12] was “inactive; negative”. The mutagenic call (Test System: AMES SALMONELLA TYPHIMURIUM, Strain/Indicator: TA1537, Metabolic Activation: NONE, Method: STANDARD PLATE) was “inactive; negative”, the mutagenic call [13] was “inactive; negative” and the mutagenic call (Test System: AMES SALMONELLA TYPHIMURIUM, Strain/Indicator: TA1537, Metabolic Activation: RAT, LIVER, S-9, AROCLOR 1254, Method: STANDARD PLATE) was “inactive; negative”. For the same molecule, the mutagenic call (Test System: AMES SALMONELLA TYPHIMURIUM, Strain/Indicator: TA1538, Metabolic Activation: HAMSTER, LIVER, S-9, AROCLOR 1254, Method: STANDARD PLATE) was “inactive; negative”, the mutagenic call (Test System: AMES SALMONELLA TYPHIMURIUM, Strain/Indicator: TA1538, Metabolic Activation: NONE, Method: STANDARD PLATE) was “inactive; negative” and the mutagenic call (Test System: AMES SALMONELLA TYPHIMURIUM, Strain/Indicator: TA1538, Metabolic Activation: RAT, LIVER, S-9, AROCLOR 1254, Method: STANDARD PLATE) was “inactive; negative”. The mutagenic call (Test System: MOUSE LYMPHOMA, Strain/Indicator: L5178Y (TK+/TK-), Metabolic Activation: NONE, Method: SUSPENSION/PLATE) was “inactive; negative. reevaluation of results: negative” and the mutagenic call (Test System: MOUSE LYMPHOMA, Strain/Indicator: L5178Y (TK+/TK-), Metabolic Activation: RAT, LIVER, S-9, AROCLOR 1254, Method: SUSPENSION/PLATE) was “inactive; negative. reevaluation of results: negative”.
`O=C1OCC(C(Br)Br)=C1Br` was tested, and the mutagenic call [6] was “active; positive”.
`N=C(N)S(=O)O` was tested, and the mutagenic call [2] was “inactive; negative”, the mutagenic call (Test System: AMES SALMONELLA TYPHIMURIUM, Strain/Indicator: TA98, Metabolic Activation: RAT LIVER S-9, PHENOBARBITAL AND BETA-NAPHTHOFLAVONE, Method: PREINCUBATION) was “inactive; negative” and the mutagenic call [5] was “inactive; negative”. The mutagenic call (Test System: AMES SALMONELLA TYPHIMURIUM, Strain/Indicator: TA100, Metabolic Activation: RAT LIVER S-9, PHENOBARBITAL AND BETA-NAPHTHOFLAVONE, Method: PREINCUBATION) was “inactive; negative”, the mutagenic call [9] was “active; positive” and the mutagenic call (Test System: AMES SALMONELLA TYPHIMURIUM, Strain/Indicator: TA1535, Metabolic Activation: RAT LIVER S-9, PHENOBARBITAL AND BETA-NAPHTHOFLAVONE, Method: PREINCUBATION) was “active; positive”. For the same molecule, the mutagenic call [12] was “inactive; negative”, the mutagenic call (Test System: AMES SALMONELLA TYPHIMURIUM, Strain/Indicator: TA1537, Metabolic Activation: RAT LIVER S-9, PHENOBARBITAL AND BETA-NAPHTHOFLAVONE, Method: PREINCUBATION) was “inactive; negative” and the mutagenic call (Test System: E.COLI, Strain/Indicator: WP2UVRA\PKM101, Metabolic Activation: NONE, Method: PREINCUBATION) was “inactive; negative”. The mutagenic call (Test System: E.COLI, Strain/Indicator: WP2UVRA\PKM101, Metabolic Activation: RAT LIVER S-9, PHENOBARBITAL AND BETA-NAPHTHOFLAVONE, Method: PREINCUBATION) was “inactive; negative”.
In the case of `N[C@H](Cc1ccccc1)C(=O)O`, the mutagenic call [1] is reported as “inactive; negative”, the mutagenic call [2] is reported as “inactive; negative” and the mutagenic call [3] is reported as “inactive; negative”. For the same molecule, the mutagenic call [4] was “inactive; negative”, the mutagenic call [5] was “inactive; negative” and the mutagenic call [7] was “inactive; negative”. The mutagenic call [8] was “inactive; negative”, the mutagenic call [9] was “inactive; negative” and the mutagenic call [10] was “inactive; negative”. For the same molecule, the mutagenic call [11] was “inactive; negative”, the mutagenic call [12] was “inactive; negative” and the mutagenic call [13] was “inactive; negative”.
With `c1ccc2c(c1)ccc1nc3ccc4c(c3cc12)CCCC4` the mutagenic call (Test System: AMES SALMONELLA TYPHIMURIUM, Strain/Indicator: TA98, Metabolic Activation: GUINEA PIG, LIVER, S-9, 3-METHYLCHOLANTHRENE, Method: STANDARD PLATE) was “inactive; negative” and the mutagenic call (Test System: AMES SALMONELLA TYPHIMURIUM, Strain/Indicator: TA100, Metabolic Activation: GUINEA PIG, LIVER, S-9, 3-METHYLCHOLANTHRENE, Method: STANDARD PLATE) was “active; positive”.
In the case of `Cc1c(N)cccc1N=Nc1cccc(N)c1C`, the mutagenic call [2] is reported as “inactive; negative”, the mutagenic call (Test System: AMES SALMONELLA TYPHIMURIUM, Strain/Indicator: TA98, Metabolic Activation: RAT, LIVER, S-9, PHENOBARBITAL AND 5,6-BENZOFLAVONE, Method: PREINCUBATION) is reported as “active; positive” and the mutagenic call [5] is reported as “inactive; negative”. The mutagenic call (Test System: AMES SALMONELLA TYPHIMURIUM, Strain/Indicator: TA100, Metabolic Activation: RAT, LIVER, S-9, PHENOBARBITAL AND 5,6-BENZOFLAVONE, Method: PREINCUBATION) was “active; positive”.
